The values below are quoted from earlier work in patent publication US5830500A, “Low dose fluoxetine tablet” (Pentech Pharmaceuticals, Inc., priority 1996, dated 1998).

In the data set the test system is premature ejaculation. The conditions noted are these: reported.

Each structure is given as a SMILES string.

For the molecule `CN(C)CCCN1c2ccccc2CCc2ccc(Cl)cc21` [clomipramine], the side effects result was “weight gain, sedation, and anticholinergic effects”. Also, the “success in managing premature ejaculation” value (informal use by a few practitioners) was “Some limited success”.
